From US12251465B2, “Dosage form comprising structured solid-solution framework of sparingly-soluble drug and method for manufacture thereof” (priority 2018, dated 2025)
Converted amounts (≈) assume the structure as drawn.

Experiment: Solubility of drug in the dissolution fluid and excipient-fluid solutions (UV absorption)
Assay type: physicochemical
Details: 37° C.
Protocol: For determining the solubility of drug in the dissolution fluid, 1 mg ibuprofen particles were put in a UV cuvette. The cuvette was then filled with 2.5 ml of the dissolution fluid (0.1 M HCl in deionized water at 37° C.). The concentration of dissolved drug was monitored by UV absorption using a Perkin Elmer Lambda 1050 Spectrophotometer. Between measurements, the cuvette was flipped at a frequency of 0.5 Hz to stir the solution. The temperature of the solution in the cuvette was maintained at 37° C., during the experiment. When the drug concentration in the solution reached its equilibrium value the drug solubility was recorded.
The solubility of drug in excipient-dissolution fluid solutions was determined by immersing 1.5 mg of the ibuprofen particles and different amounts (1.5-200 mg) of excipient in 2.5 ml dissolution fluid. The excipient was either HPMC or a mixture of 67 wt % HPMC and 33 wt % polyoxyl stearate. The dissolution fluid was 0.1 M HCl in deionized water.

[1] = 1 mg ibuprofen particles in 2.5 ml stirred dissolution fluid

concentration of dissolved drug at 3000 minutes (50 h) [1]: 0.04 mg/mL | time to reach the solubility c0 [1]: ≤ 15,000 minutes | solubility (dissolution fluid (0.1 M HCl in deionized water), simulated gastric fluid, thermodynamic from solid, 0.1 M HCl in deionized water, no excipient, read-out: solubility of ibuprofen in the dissolution fluid, c0): ~50 µg/mL (≈ 242 µM)
Compound: CC(C)Cc1ccc(C(C)C(=O)O)cc1 (stereo not drawn) [ibuprofen]
